According to PubChem BioAssay (NCI):
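Five concentrations, 48 hours, 96-well plates. GI50 = concentration required for 50% inhibition of growth. TGI marks complete inhibition of growth.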

Assays:
Experiment in all cases: NCI tumour cell line growth inhibition, 48 h
[1] = system: 786-0 renal
[2] = system: A498 renal
[3] = system: A549 NSCLC
[4] = system: ACHN renal
[5] = system: CAKI-1 renal
[6] = system: COLO 205 colon
[7] = system: DLD-1 colon
[8] = system: DMS 114 small cell lung
[9] = system: DMS 273 small cell lung
[10] = system: EKVX NSCLC
[11] = system: HCT-116 colon
[12] = system: HCT-15 colon
[13] = system: HL-60(TB) leukemia
[14] = system: HOP-18 NSCLC
[15] = system: HOP-62 NSCLC
[16] = system: HOP-92 NSCLC
[17] = system: HT29 colon
[18] = system: IGROV1 ovarian
[19] = system: K-562 leukemia
[20] = system: KM12 colon
[21] = system: KM20L2 colon
[22] = system: LXFL 529 NSCLC
[23] = system: M14 melanoma
[24] = system: MALME-3M melanoma
[25] = system: MOLT-4 leukemia
[26] = system: NCI-H226 lung
[27] = system: NCI-H23 lung
[28] = system: NCI-H460 lung
[29] = system: NCI-H522 lung
[30] = system: OVCAR-4 ovarian
[31] = system: OVCAR-5 ovarian
[32] = system: OVCAR-8 ovarian
[33] = system: RPMI-8226 leukemia
[34] = system: RXF 393 renal
[35] = system: SF-268 CNS
[36] = system: SF-295 CNS
[37] = system: SF-539 CNS
[38] = system: SK-MEL-2 melanoma
[39] = system: SK-MEL-28 melanoma
[40] = system: SK-MEL-5 melanoma
[41] = system: SK-OV-3 ovarian
[42] = system: SN12C renal
[43] = system: SNB-19 CNS
[44] = system: SNB-75 CNS
[45] = system: SNB-78 CNS
[46] = system: SR leukemia
[47] = system: TK-10 renal
[48] = system: U251 CNS
[49] = system: UACC-257 melanoma
[50] = system: UACC-62 melanoma
[51] = system: UO-31 renal
[52] = system: XF 498 CNS
[53] = system: CCRF-CEM leukemia
[54] = system: HCC-2998 colon
[55] = system: LOX IMVI melanoma
[56] = system: M19-MEL melanoma
[57] = system: OVCAR-3 ovarian
[58] = system: SW-620 colon
[59] = system: DU-145 prostate
[60] = system: HS 578T breast
[61] = system: MCF7 breast
[62] = system: MDA-MB-231 breast
[63] = system: MDA-MB-435
[64] = system: MDA-N
[65] = system: PC-3 prostate
[66] = system: T-47D breast

Structure (SMILES): CC1(C)OCC([C@H]2CC23SCCCS3)O1 (stereo partly specified)
- TGI [1]: > 100 µM
- TGI [2]: > 100 µM
- TGI [3]: > 100 µM
- TGI [4]: > 100 µM
- TGI [5]: > 100 µM
- TGI [6]: > 100 µM
- TGI [7]: > 100 µM
- TGI [8]: > 100 µM
- TGI [9]: > 100 µM
- TGI [10]: > 100 µM
- TGI [11]: > 100 µM
- TGI [12]: > 100 µM
- TGI [13]: > 100 µM
- TGI [14]: > 100 µM
- TGI [15]: > 100 µM
- TGI [16]: > 100 µM
- TGI [17]: > 100 µM
- TGI [18]: > 100 µM
- TGI [19]: > 100 µM
- TGI [20]: > 100 µM
- TGI [21]: > 100 µM
- TGI [22]: > 100 µM
- TGI [23]: > 100 µM
- TGI [24]: > 100 µM
- TGI [25]: > 100 µM
- TGI [26]: > 100 µM
- TGI [27]: > 100 µM
- TGI [28]: > 100 µM
- TGI [29]: > 100 µM
- TGI [30]: > 100 µM
- TGI [31]: > 100 µM
- TGI [32]: > 100 µM
- TGI [33]: > 100 µM
- TGI [34]: > 100 µM
- TGI [35]: > 100 µM
- TGI [36]: > 100 µM
- TGI [37]: > 100 µM
- TGI [38]: > 100 µM
- TGI [39]: > 100 µM
- TGI [40]: > 100 µM
- TGI [41]: > 100 µM
- TGI [42]: > 100 µM
- TGI [43]: > 100 µM
- TGI [44]: > 100 µM
- TGI [45]: > 100 µM
- TGI [46]: > 100 µM
- TGI [47]: > 100 µM
- TGI [48]: > 100 µM
- TGI [49]: > 100 µM
- TGI [50]: > 100 µM
- TGI [51]: > 100 µM
- TGI [52]: > 100 µM

Structure (SMILES): C[CH2][Ge]([CH2]C)([CH2]C)[O]C(=O)CCC(=O)[O][Ge]([CH2]C)([CH2]C)[CH2]C
- GI50 [3]: 68.5 µM
- TGI [3]: > 100 µM
- GI50 [4]: > 100 µM
- TGI [4]: > 100 µM
- GI50 [5]: > 100 µM
- TGI [5]: > 100 µM
- GI50 [53]: 23.7 µM
- TGI [53]: > 100 µM
- GI50 [6]: > 100 µM
- TGI [6]: > 100 µM
- GI50 [7]: 38.7 µM
- TGI [7]: > 100 µM
- GI50 [8]: 38.9 µM
- TGI [8]: > 100 µM
- GI50 [9]: 85.9 µM
- TGI [9]: > 100 µM
- GI50 [10]: 20.5 µM
- TGI [10]: > 100 µM
- GI50 [54]: 90.9 µM
- TGI [54]: > 100 µM
- GI50 [11]: 57.3 µM
- TGI [11]: > 100 µM
- GI50 [12]: 48.4 µM
- TGI [12]: > 100 µM
- GI50 [14]: > 100 µM
- TGI [14]: > 100 µM
- GI50 [15]: > 100 µM
- TGI [15]: > 100 µM
- GI50 [16]: 16.2 µM
- TGI [16]: > 100 µM
- GI50 [17]: 40.2 µM
- TGI [17]: > 100 µM
- GI50 [18]: > 100 µM
- TGI [18]: > 100 µM
- GI50 [19]: 29.6 µM
- TGI [19]: > 100 µM
- GI50 [20]: 55.2 µM
- TGI [20]: > 100 µM
- GI50 [21]: > 100 µM
- TGI [21]: > 100 µM
- GI50 [55]: 58 µM
- TGI [55]: > 100 µM
- GI50 [22]: 42.5 µM
- TGI [22]: > 100 µM
- GI50 [23]: > 100 µM
- TGI [23]: > 100 µM
- GI50 [56]: > 100 µM
- TGI [56]: > 100 µM
- GI50 [24]: 79.3 µM
- TGI [24]: > 100 µM
- GI50 [25]: 39 µM
- TGI [25]: > 100 µM
- GI50 [26]: > 100 µM
- TGI [26]: > 100 µM
- GI50 [27]: 39.7 µM
- TGI [27]: > 100 µM
- GI50 [28]: 24.8 µM
- TGI [28]: > 100 µM
- GI50 [29]: 45.2 µM
- TGI [29]: > 100 µM
- GI50 [57]: 66 µM
- TGI [57]: > 100 µM
- GI50 [30]: > 100 µM
- TGI [30]: > 100 µM
- GI50 [31]: > 100 µM
- TGI [31]: > 100 µM
- GI50 [32]: 34.7 µM
- TGI [32]: > 100 µM
- GI50 [33]: 0.249 µM
- TGI [33]: > 100 µM
- GI50 [34]: > 100 µM
- TGI [34]: > 100 µM
- GI50 [35]: > 100 µM
- TGI [35]: > 100 µM
- GI50 [37]: > 100 µM
- TGI [37]: > 100 µM
- GI50 [38]: > 100 µM
- TGI [38]: > 100 µM
- GI50 [39]: > 100 µM
- TGI [39]: > 100 µM
- GI50 [41]: > 100 µM
- TGI [41]: > 100 µM
- GI50 [42]: > 100 µM
- TGI [42]: > 100 µM
- GI50 [43]: > 100 µM
- TGI [43]: > 100 µM
- GI50 [46]: 40.3 µM
- TGI [46]: > 100 µM
- GI50 [58]: > 100 µM
- TGI [58]: > 100 µM
- GI50 [47]: > 100 µM
- TGI [47]: > 100 µM
- GI50 [48]: 43.3 µM
- TGI [48]: > 100 µM
- GI50 [50]: > 100 µM
- TGI [50]: > 100 µM
- GI50 [51]: 87.5 µM
- TGI [51]: > 100 µM
- GI50 [52]: > 100 µM
- TGI [52]: > 100 µM

Structure (SMILES): CC1(C)C(=O)/C=C\C(=O)C(C)(C)C(=O)/C=C\C(=O)C(C)(C)C(=O)/C=C\C(=O)C(C)(C)C(=O)/C=C\C1=O
- TGI [1]: 49.1 µM
- TGI [2]: > 100 µM
- TGI [3]: > 100 µM
- TGI [4]: > 63.2 µM
- TGI [5]: 31.2 µM
- TGI [53]: 23.4 µM
- TGI [6]: 33.2 µM
- TGI [7]: 30.1 µM
- TGI [9]: 37.4 µM
- TGI [59]: > 100 µM
- TGI [10]: 69.6 µM
- TGI [11]: 30.8 µM
- TGI [12]: 61.5 µM
- TGI [13]: 10.4 µM
- TGI [14]: 40.6 µM
- TGI [15]: > 100 µM
- TGI [16]: 29.1 µM
- TGI [60]: > 100 µM
- TGI [17]: 37.3 µM
- TGI [18]: 56.5 µM
- TGI [19]: 39.4 µM
- TGI [20]: > 72.8 µM
- TGI [21]: 83.2 µM
- TGI [55]: > 53.8 µM
- TGI [22]: 21.3 µM
- TGI [23]: 48.8 µM
- TGI [56]: 40.6 µM
- TGI [24]: 33.1 µM
- TGI [61]: > 100 µM
- TGI [62]: > 100 µM
- TGI [63]: > 100 µM
- TGI [64]: > 100 µM
- TGI [25]: 26.7 µM
- TGI [26]: > 86.5 µM
- TGI [27]: 51.6 µM
- TGI [28]: > 100 µM
- TGI [29]: 20.2 µM
- TGI [57]: 48.7 µM
- TGI [30]: 53.1 µM
- TGI [31]: 69.7 µM
- TGI [32]: 74.5 µM
- TGI [65]: > 100 µM
- TGI [33]: 24.2 µM
- TGI [34]: 34.1 µM
- TGI [35]: > 69.3 µM
- TGI [36]: 54.5 µM
- TGI [37]: 55.8 µM
- TGI [38]: 47.5 µM
- TGI [39]: > 58 µM
- TGI [40]: 56.2 µM
- TGI [41]: > 96.1 µM
- TGI [42]: 54.8 µM
- TGI [43]: > 71.1 µM
- TGI [44]: 99.4 µM
- TGI [45]: 50 µM
- TGI [46]: 27.8 µM
- TGI [58]: 28.1 µM
- TGI [66]: > 100 µM
- TGI [47]: > 68.6 µM
- TGI [48]: 64.3 µM
- TGI [49]: 63.9 µM
- TGI [50]: 56.3 µM
- TGI [51]: 56 µM
- TGI [52]: 51.4 µM
